Columns and labels:
[1] = test system: finishing pigs (longissimus muscle); assay: Carcass quality measures of finishing pigs fed Carnitine and Paylean (Example 1); assay type: in vivo; parameters: key to L*: lightness: 100 = perfect white, 0 = absolute black; key to Firmness: score 1 = soft and watery, 5 = firm and dry; Hue angle / Drip loss: unit not given here; settings: for Temperature: 45 minutes postmortem
From the text: Color is qualitatively measured using Minolta color-spectrometry, a process which evaluates the Hunter L* and a* values of the meat color, as well as by the saturation index and the Hue Angle value. Hunter L* value measures the lightness of the meat color and varies from 100 for perfect white to 0 for absolute black. Acceptable values for pork range from 35 to 55, with 40-45 values being most preferred by consumers.
The other Hunter value is related to the hue of the color of the meat, with increasing a* values indicating redness and decreasing a values indicating greenness. High quality pork has Hunter a* values which range from 7.5 to 12, and consumers prefer meat with 9-9.5 scores.
Hue Angle value measures the discoloration of meat. Increasing values indicate increasing discoloration of meat. Decreasing values indicate reduction of the discoloration. Acceptable pork Hue Angle values range from 48 to 54, and the preferred values range from 48-52.
The final spectrographic measurement is the saturation index, which is related to the strength of the color of the meat. Acceptable pork saturation index values range from 12 to 15.5, with values from 13-14.5 being preferred. The color of the meat is of particular importance in some export markets, such as Japan, Korea, Asia and South America. […] Acceptable marbling score ranges from 1 to 3, with 2.5 being preferred.
Drip loss is a measurement of the ability of the sample to retain water. In this procedure, a standardized amount of lean pork muscle, i.e., a cubic centimeter, is weighed, then suspended in an airtight container from a hook for 24 hours. The difference in weight from beginning to end of the 24 hour period represents the amount of water loss or purge. The greater the amount of purge loss, the poorer the pork quality. Changes in the pH of pork associated with postmortem metabolism affect the isoelectric point of the various amino acids in protein, and thus can affect the protein's ability to bind water. Pork with high drip loss is termed in the industry as “exudative” which is undesirable to both meat producers and consumers.
The firmness of the meat is measured visually on the score from 1 to 5, 1 being soft and watery, 5 being firm and dry. The acceptable score is 2-4, and the preferred score is 2.5-3.5. This characteristic of pork has become important due to recent attempts to genetically improve the leanness of the meat. The desired leanness has been accompanied by a negative impact on the meat firmness. As a result, approximately 30% of the meat now going through packing houses has been categorized as PSE (Pale Soft Exudative meat) and is unacceptable to the consumer, thus causing economic loss to the meat producer according to the National Meat Producers Council. Thus, there is an urgent need in the art for means of improving the quality (firmness, color, marbling) and carcass characteristics of the pork.
(§1) One hundred twenty-six gilts (initially 73.6 lb, PIC C22×L326) were allotted by weight and ancestry in a randomized complete block design to each of the nine experimental treatments arranged in a 3×3 factorial arrangement. There were two pigs/pen and seven replicates/treatment. Pigs were housed in an environmentally controlled building with 4-ft×4-ft slatted-floor pens.
Pigs were fed a corn-soybean meal diet composed of the following:
L-carnitine (0, 25, or 50 ppm) was added to the diet from 73.6 lb until slaughter (approximately 240 lb). Paylean (a registered trademark of Eli Lilly Company for ractopamine) treatments (0, 4.5, or 9 g/ton) were fed for the last four weeks of the experiment. The basal diet was formulated to contain 1.10% lysine from 73.6 to 164 lb, and 1.00% lysine from 164 lb until the end of the experiment. These quantities of Paylean are equivalent to 0, 5, and 10 ppm of ractopamine in the feed, respectively. […]

pork = assay: Follow-up studies of pork drip loss (Example 3, FIGS. 1 and 2); assay type: in vivo, pigs
Description: Drip loss is a measurement of the ability of the sample to retain water. In this procedure, a standardized amount of lean pork muscle, i.e., a cubic centimeter, is weighed, then suspended in an airtight container from a hook for 24 hours. The difference in weight from beginning to end of the 24 hour period represents the amount of water loss or purge. […] Changes in the pH of pork associated with postmortem metabolism affect the isoelectric point of the various amino acids in protein, and thus can affect the protein's ability to bind water.

finishing pigs = assay: Carcass characteristics of finishing pigs fed Carnitine and Paylean (Example 2); assay type: in vivo; settings: for Firmness / Marbling / Visual cobra: score 1 to 5
Description: Because of the dramatic and potentially economically important changes in pork quality observed in the data of Example 1, a second trial was conducted to confirm these observations. This experiment was conducted in the same facility as Example 1 and used the same diet in Table 1. The primary difference was that the 4.5 g/ton ractopamine level was not included; i.e., only 0 or 9 grams/ton ractopamine was combined with either 0, 25, or 50 ppm of added L-camitine.

pigs = assay: Growth performance of pigs (Example 1); assay type: in vivo; settings: between 73.6 and 164 lb; P>0.64
Description: as §1
L-carnitine (0, 25, or 50 ppm) was added to the diet from 73.6 lb until slaughter (approximately 240 lb). Paylean (a registered trademark of Eli Lilly Company for ractopamine) treatments (0, 4.5, or 9 g/ton) were fed for the last four weeks of the experiment. The basal diet was formulated to contain 1.10% lysine from 73.6 to 164 lb, and 1.00% lysine from 164 lb until the end of the experiment. These quantities of Paylean are equivalent to 0, 5, and 10 ppm of ractopamine in the feed, respectively.
Weights were obtained on every pig and feed disappearance was recorded every fourteen days during the experiment until the last four weeks, at which time measurements were taken weekly to calculate ADG, ADFI, and feed efficiency (F/G). One pig (closest to 240 lb) per pen was selected and slaughtered at the Kansas State University Meat Laboratory. […]
Data were analyzed as a randomized complete block. […]

[2] = Paylean 0 g/ton, Carnitine 25 ppm
[3] = Paylean 0 g/ton, Carnitine 25 ppm, score 1 to 5
[4] = Paylean 0 g/ton, Carnitine 50 ppm
[5] = Paylean 0 g/ton, Carnitine 50 ppm, score 1 to 5
[6] = with 4.5 or 9 g/ton Paylean, but not control pigs
[7] = with increasing levels, linear, P<0.04
[8] = Paylean 4.5 g/ton, Carnitine 0 ppm
[9] = Paylean 4.5 g/ton, Carnitine 0 ppm, score 1 to 5
[10] = Paylean 9 g/ton, Carnitine 0 ppm
[11] = Paylean 9 g/ton, Carnitine 0 ppm, score 1 to 5

## C[N+](C)(C)C[C@H](O)CC(=O)[O-] [Carnitine, L-carnitine]
[1]; [2]
  Drip loss: 2.80
  Hue angle: 67.38
  L*: 58.01
  PH 45 m postmortem: 6.55
  PH 24 h postmortem: 5.79
  Saturation index: 15.89
  a*: 6.17
  a*/b*: 0.42
  b*: 14.61
  Temperature: 34.83 °C
[1]; [3]
  Firmness: 1.65
  Marbling: 1.71
  Visual color: 2.78
[1]; [4]
  Drip loss: 2.07
  Hue angle: 67.05
  L*: 56.80
  PH 45 m postmortem: 6.46
  PH 24 h postmortem: 5.76
  Saturation index: 16.44
  a*: 6.45
  a*/b*: 0.43
  b*: 15.10
  Temperature: 32.98 °C
[1]; [5]
  Firmness: 1.93
  Marbling: 1.85
  Visual color: 3.14
[1]; in control pigs
  visual color scores: did not improve
[1]; increasing levels, fed with 4.5 or 9 g/ton of Paylean, longissimus muscle at 10th rib
  L* values: lower L* values
[1]; supplementing finishing pig diets
  color, marbling, L*, a*/b* ratio and hue angle: positively improve
[1]; when 4.5 or 9 g/ton of Paylean was fed
  Visual color: did improve
[1]; [6]
  Hue angle values: lower
  a*/b* values: lower
[1]; [7]
  Drip loss measured 48 hours postmortem: decreased
  temperature at 45 minutes postmortem: decreased
[1]; with increasing levels, linear, P<0.07
  Ultimate (24-h) pH: increased
[1]; with increasing levels, quadratic, P<0.05
  Measurements of b*: decreased
[1]; with increasing levels, quadratic, P<0.07
  saturation index measured on the longissimus muscle: tended to decrease
pork; 50 ppm, without ractopamine, two of the three studies, FIG. 1
  effect on drip loss: small positive effect
pork; added to diet containing ractopamine, FIG. 2
  effect on reducing (improving) pork drip loss: greater net positive effect
Finishing pigs; [2]
  Drip loss: 3.07%
  Hue angle: 64.61
  L*: 57.23
  Saturation index: 17.59
  Temperature 5 min: 39.79 °C
  Temperature 15 min: 39.92 °C
  Temperature 45 min: 39.03 °C
  Temperature 1.5 h: 32.87 °C
  Temperature 3 h: 22.12 °C
  Temperature 6 h: 11.28 °C
  a*: 7.58
  a*/b*: 0.48
  b*: 15.86
  pH 0 min: 7.13
  pH 5 min: 6.84
  pH 15 min: 6.60
  pH 45 min: 6.16
  pH 1.5 h: 5.91
  pH 3 h: 5.76
  pH 6 h: 5.70
  pH 24 h: 5.61
  Firmness: 2.44
  Marbling: 1.75
  Visual cobra: 3.10
Finishing pigs; [4]
  Drip loss: 2.73%
  Hue angle: 64.07
  L*: 58.00
  Saturation index: 18.11
  Temperature 5 min: 39.17 °C
  Temperature 15 min: 39.56 °C
  Temperature 45 min: 38.73 °C
  Temperature 1.5 h: 33.17 °C
  Temperature 3 h: 20.89 °C
  Temperature 6 h: 11.22 °C
  a*: 7.93
  a*/b*: 0.49
  b*: 16.27
  pH 0 min: 7.21
  pH 5 min: 6.82
  pH 15 min: 6.58
  pH 45 min: 6.02
  pH 1.5 h: 5.97
  pH 3 h: 5.88
  pH 6 h: 5.70
  pH 24 h: 5.60
  Firmness: 2.34
  Marbling: 1.55
  Visual cobra: 2.90
Finishing pigs; in pigs fed Paylean
  meat quality: improves meat quality
pigs
  growth performance of pigs: did not affect

## CC(CCc1ccc(O)cc1)NCC(O)c1ccc(O)cc1 (centres unmarked) [Paylean, ractopamine, reference compound]
[1]; [8]
  Drip loss: 3.13
  Hue angle: 69.95
  L*: 60.78
  PH 45 m postmortem: 6.41
  PH 24 h postmortem: 5.79
  Saturation index: 16.76
  a*: 5.78
  a*/b*: 0.37
  b*: 15.69
  Temperature: 34.39 °C
[1]; [9]
  Firmness: 1.79
  Marbling: 1.35
  Visual color: 2.57
[1]; [10]
  Drip loss: 3.68
  Hue angle: 68.65
  L*: 61.53
  PH 45 m postmortem: 6.33
  PH 24 h postmortem: 5.71
  Saturation index: 17.12
  a*: 6.30
  a*/b*: 0.39
  b*: 15.90
  Temperature: 35.72 °C
[1]; [11]
  Firmness: 1.79
  Marbling: 1.64
  Visual color: 2.57
[1]; with increasing levels of Paylean, quadratic, P<0.06, highest at 4.5 g/ton
  Twenty-four hour pH: increased and then decreased
Finishing pigs; [10]
  Drip loss: 4.85%
  Hue angle: 65.14
  L*: 59.72
  Saturation index: 18.74
  Temperature 5 min: 39.60 °C
  Temperature 15 min: 40.42 °C
  Temperature 45 min: 39.43 °C
  Temperature 1.5 h: 35.99 °C
  Temperature 3 h: 24.38 °C
  Temperature 6 h: 12.04 °C
  a*: 7.94
  a*/b*: 0.46
  b*: 16.97
  pH 0 min: 7.16
  pH 5 min: 6.79
  pH 15 min: 6.59
  pH 45 min: 6.14
  pH 1.5 h: 5.89
  pH 3 h: 5.59
  pH 6 h: 5.61
  pH 24 h: 5.58
  Firmness: 1.99
  Marbling: 1.85
  Visual cobra: 2.75

— patent US20030235646A1, “Method for improving quality of meat by supplementing pig diets and concentrates used therefor” (Lonza Inc., priority 2002, published 2003)
